Measured values reported in article PMC2562941 (Molecular carcinogenesis, 2008).
pIC50: −log10 of the molar value.

What was measured:
His-tagged COX-2 = target: T1, His-tagged COX-2 (Homo sapiens, UniProt P35354); experiment: Surface plasmon resonance; assay type: binding; conditions: each at 300 μM; 0.1 μg His-COX-2; 25 °C
T1 sequence (P35354 18-604): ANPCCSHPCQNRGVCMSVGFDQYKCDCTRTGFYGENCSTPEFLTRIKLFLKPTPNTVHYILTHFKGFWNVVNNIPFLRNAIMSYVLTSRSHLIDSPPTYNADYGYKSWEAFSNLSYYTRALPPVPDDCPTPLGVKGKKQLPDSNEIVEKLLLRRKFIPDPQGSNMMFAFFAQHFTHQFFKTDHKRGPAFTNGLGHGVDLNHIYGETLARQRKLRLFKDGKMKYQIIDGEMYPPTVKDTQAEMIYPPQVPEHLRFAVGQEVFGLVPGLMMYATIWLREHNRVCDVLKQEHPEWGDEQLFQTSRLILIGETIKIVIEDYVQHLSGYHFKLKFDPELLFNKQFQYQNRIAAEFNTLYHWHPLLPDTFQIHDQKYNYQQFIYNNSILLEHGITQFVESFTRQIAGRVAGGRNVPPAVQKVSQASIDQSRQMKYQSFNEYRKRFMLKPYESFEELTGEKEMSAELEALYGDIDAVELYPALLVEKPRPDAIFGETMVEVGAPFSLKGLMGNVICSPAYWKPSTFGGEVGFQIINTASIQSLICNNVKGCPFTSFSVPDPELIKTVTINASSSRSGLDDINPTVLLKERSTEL

[1] = target: T2, recombinant human COX-2 enzyme (Homo sapiens, UniProt P35354); experiment: COX-2-mediated PGE2 production in vitro; assay type: biochemical
T2 sequence (P35354 18-604): T1 sequence (P35354 18-604)

COX-2^+/+ cells = experiment: COX-2-mediated PGE2 production ex vivo in COX-2+/+ cells; assay type: cell-based, murine; conditions: for pIC50: Mus musculus, read-out: IC50, suppression of PGE2 synthesis ex vivo
[2] = tested on: HT-29 human colon cancer cells; experiment: Cell growth of HT-29 cells; assay type: cell-based; conditions: each at 10 μM; growth curves over 5 days; vs untreated control
HT-29 colon cancer cells = experiment: Soft agar colony formation assay; assay type: cell-based, human; conditions: HT-29 cells; 10 or 20 μM; 10 days
JB6 Cl41 cells = conditions: cited from earlier work
[3] = tested on: COX-2^+/+ murine embryonic fibroblasts; experiment: Cell growth of COX-2+/+ murine embryonic fibroblasts; conditions: 10 μM, after 6 days
[4] = tested on: COX-2^−/− murine embryonic fibroblasts; experiment: Cell growth of COX-2-/- murine embryonic fibroblasts; conditions: 10 μM, after 6 days
COX-2 = conditions: ref 7 (Jang et al.); cited from earlier work
[5] = tested on: 1.2-dimethylhydrazine-induced colon carcinogenesis; conditions: rats; 8 mg/kg body weight every day for 30 weeks; cited from earlier work
[6] = tested on: colorectal cancer cell lines; conditions: independent of COX activity; cited from earlier work
[7] = tested on: three different human colon cancer cell lines; conditions: cited from earlier work

Row | Structure (SMILES) | binding with His-COX-2 (SPR sensograms) (His-tagged COX-2) | pIC50 (COX-2^+/+ cells) | inhibition of HT-29 cell growth [2] | inhibition of anchorage-independent colony formation in soft agar (HT-29 colon cancer cells) | growth inhibitory effect on COX-2^+/+ cells [3] | suppression of growth of COX-2^+/+ cells [3] [%] | effect on growth of COX-2^−/− cells [4] | further results
1 | Oc1cc(O)cc(/C=C/c2cc(O)c(O)c(O)c2)c1 [RSVL-2, 3,3’,4’,5’,5-pentahydroxy-trans-stilbene] | more strongly than with RSVL | 4.30 | inhibited cell growth by day 4 | even more strongly | potent growth inhibitory effects | 80 | unresponsive | pIC50 [1]: 4.60; inhibitory effect on EGF-induced cell transformation compared with resveratrol (JB6 Cl41 cells; EGF-induced JB6 Cl41 transformation, ref 13 (She et al.)): more potent inhibitory effect
2 | Oc1ccc(/C=C/c2cc(O)cc(O)c2)cc1 [RSVL, 3,5,4'-trihydroxy-trans-stilbene, reference compound] |  | […] | […] | […] | potent growth inhibitory effects | […] | unresponsive | inhibition of cyclooxygenase activity of COX-2 (COX-2): did not inhibit; concentration range of dose-dependent inhibition of cellular transformation (JB6 Cl41 cells; TPA- or EGF-induced JB6 Cl41 transformation, ref 10 (Huang et al.)): […]; effect on size of tumors [5]: markedly reduce the size of tumors
3 | Oc1cc(O)cc(/C=C/c2ccc(O)c(O)c2)c1 [Piceatannol] |  |  |  |  |  |  |  | effect on cell cycle progression [6]: inhibited progression through the S phase
4 | Oc1ccc([C@@H]2c3c(O)cc4c(c3[C@@H]3c5c(O)cc6c(c5[C@H]2[C@H]3c2ccc(O)cc2)[C@@H](c2cc(O)cc(O)c2)[C@H](c2ccc(O)cc2)O6)[C@@H](c2cc(O)cc(O)c2)[C@H](c2ccc(O)cc2)O4)cc1 [Vaticanol C] |  |  |  |  |  |  |  | suppression of cell growth through induction of apoptosis [7]: markedly suppress cell growth
5 | COc1ccc(/C=C/c2cc(OC)cc(OC)c2)cc1 [RSVL-3, 3,4’,5-trimethoxy-trans-stilbene] | does not bind |  | not RSVL-3, inhibited cell growth | little effect | not RSVL-3, exhibited potent growth inhibitory effects |  |  | inhibition of PGE2 synthesis in vitro [1]: not RSVL-3, inhibited PGE2 synthesis in vitro; suppression of PGE2 synthesis ex vivo (COX-2^+/+ cells; COX-2^+/+ cells): not RSVL-3, dose-dependently suppressed PGE2 synthesis
